# pIC50: −log10 of the molar value. Where a name gives a salt, the structure may show the parent alone.
# Target: hNav1.7 (Homo sapiens (Human), UniProt Q15858)
# Assay: Tritiated compound binding to membranes from cells expressing hNav1.7 and the β1 subunit (Nav1.7 LBA EVO)
# Settings: competitive binding vs [3H]compound, membranes with hNav1.7 and β1 subunit
# Method: Example 64a. Tritiated Compound Binding to Membranes Isolated from Cells that Heterologously Express hNav1.7 and the β1 Subunit
# Preparation of membranes containing recombinantly expressed sodium channels: Frozen recombinant cell pellets are thawed on ice and diluted to 4 times the cell pellet weight with ice cold 50 mM Tris HCl, pH 7.4 buffer. The cell suspensions are homogenized on ice using a motorized glass dounce homogeniser. Homogenates are further diluted 8.4 times with ice cold 50 mM Tris HCl, pH 7.4 buffer and then centrifuged at 200×g at 4° C. for 15 minutes. The supernatants are collected and centrifuged at 10000×g at 4° C. for 50 min. The pellets are then re-suspended in 100 mM NaCl, 20 mM Tris HCl, pH 7.4 buffer containing 1% v/v protease inhibitors (Calbiochem) and re-homogenized on ice. The homogenized membranes are then processed through a syringe equipped with a 26 gauge needle. Protein concentrations arer determined by Bradford Assay and the membranes are stored at −80° C.
# Radioligand Binding Studies: Saturation experiments. A competitive NaV1.7 inhibitor having a methyl group is tritiated. Three tritiums are incorporated in place of methyl hydrogens to generate [^3H]compound. Binding of this radioligand is performed in 5 mL borosilicate glass test tubes at room temperature. Binding is initiated by adding membranes to increasing concentrations of [^3H]compound in 100 mM NaCl, 20 mM Tris HCl, pH 7.4 buffer containing 0.01% w/v bovine serum albumin (BSA) for 18 h. Non-specific binding is determined in the presence of 1 μM unlabeled compound. After 18 h, the reactants are filtered through GF/C glass fiber filters presoaked in 0.5% w/v polyethylene imine. Filters are washed with 15 mL ice cold 100 mM NaCl, 20 mM Tris HCl, pH7.4 buffer containing 0.25% BSA to separate bound from free ligand. [^3H]compound bound to filters is quantified by liquid scintillation counting.
# Competitive binding experiments: Binding reactions are performed in 96-well polypropylene plates at room temperature for 18 h. In 360 μL, membranes are incubated with 100 pM [^3H]compound and increasing concentrations of Test Compound. Non-specific binding is defined in the presence of 1 μM unlabeled compound. Reactions are transferred and filtered through 96-well glass fiber/C filter plates presoaked with 0.5% polyethylene imine. The filtered reactions are washed 5 times with 200 μL ice cold buffer containing 0.25% BSA. Bound radioactivity is determined by liquid scintillation counting.
# Data Analysis: For saturation experiments, non-specific binding is subtracted from total binding to provide specific binding and these values are recalculated in terms of pmol ligand bound per mg protein. Saturation curves are constructed and dissociation constants are calculated using the single site ligand binding model: Beq=(Bmax*X)/(X+Kd), where Beq is the amount of ligand bound at equilibrium, Bmax is the maximum receptor density, Kd is the dissociation constant for the ligand, and X is the free ligand concentration. For competition studies percent inhibition is determined and IC50 values are calculated using a 4 parameter logistic model (% inhibition=(A+((B−A)/(1+((x/C)^D)))) using XLfit, where A and B are the maximal and minimum inhibition respectively, C is the IC50 concentration and D is the (Hill) slope.
# Example 64b. Tritiated Compound Binding to Membranes Isolated from Cells that Heterologous Express hNav1.7 and the β1 Subunit
# Preparation of membranes containing recombinantly expressed sodium channels: Following the procedure described in 31a, and making modifications as required to: centrifuge supernatants at 100000×g instead of 10000×g; re-suspend pellets in a buffer containing 0.01% BSA in addition to 100 mM NaCl, 20 mM Tris HCl, pH 7.4 buffer, and 1% v/v […]; and storing membranes at −80° C. in single use aliquots instead of pooled. […]
# Sequence of hNav1.7 (Q15858 whole entry, looked up): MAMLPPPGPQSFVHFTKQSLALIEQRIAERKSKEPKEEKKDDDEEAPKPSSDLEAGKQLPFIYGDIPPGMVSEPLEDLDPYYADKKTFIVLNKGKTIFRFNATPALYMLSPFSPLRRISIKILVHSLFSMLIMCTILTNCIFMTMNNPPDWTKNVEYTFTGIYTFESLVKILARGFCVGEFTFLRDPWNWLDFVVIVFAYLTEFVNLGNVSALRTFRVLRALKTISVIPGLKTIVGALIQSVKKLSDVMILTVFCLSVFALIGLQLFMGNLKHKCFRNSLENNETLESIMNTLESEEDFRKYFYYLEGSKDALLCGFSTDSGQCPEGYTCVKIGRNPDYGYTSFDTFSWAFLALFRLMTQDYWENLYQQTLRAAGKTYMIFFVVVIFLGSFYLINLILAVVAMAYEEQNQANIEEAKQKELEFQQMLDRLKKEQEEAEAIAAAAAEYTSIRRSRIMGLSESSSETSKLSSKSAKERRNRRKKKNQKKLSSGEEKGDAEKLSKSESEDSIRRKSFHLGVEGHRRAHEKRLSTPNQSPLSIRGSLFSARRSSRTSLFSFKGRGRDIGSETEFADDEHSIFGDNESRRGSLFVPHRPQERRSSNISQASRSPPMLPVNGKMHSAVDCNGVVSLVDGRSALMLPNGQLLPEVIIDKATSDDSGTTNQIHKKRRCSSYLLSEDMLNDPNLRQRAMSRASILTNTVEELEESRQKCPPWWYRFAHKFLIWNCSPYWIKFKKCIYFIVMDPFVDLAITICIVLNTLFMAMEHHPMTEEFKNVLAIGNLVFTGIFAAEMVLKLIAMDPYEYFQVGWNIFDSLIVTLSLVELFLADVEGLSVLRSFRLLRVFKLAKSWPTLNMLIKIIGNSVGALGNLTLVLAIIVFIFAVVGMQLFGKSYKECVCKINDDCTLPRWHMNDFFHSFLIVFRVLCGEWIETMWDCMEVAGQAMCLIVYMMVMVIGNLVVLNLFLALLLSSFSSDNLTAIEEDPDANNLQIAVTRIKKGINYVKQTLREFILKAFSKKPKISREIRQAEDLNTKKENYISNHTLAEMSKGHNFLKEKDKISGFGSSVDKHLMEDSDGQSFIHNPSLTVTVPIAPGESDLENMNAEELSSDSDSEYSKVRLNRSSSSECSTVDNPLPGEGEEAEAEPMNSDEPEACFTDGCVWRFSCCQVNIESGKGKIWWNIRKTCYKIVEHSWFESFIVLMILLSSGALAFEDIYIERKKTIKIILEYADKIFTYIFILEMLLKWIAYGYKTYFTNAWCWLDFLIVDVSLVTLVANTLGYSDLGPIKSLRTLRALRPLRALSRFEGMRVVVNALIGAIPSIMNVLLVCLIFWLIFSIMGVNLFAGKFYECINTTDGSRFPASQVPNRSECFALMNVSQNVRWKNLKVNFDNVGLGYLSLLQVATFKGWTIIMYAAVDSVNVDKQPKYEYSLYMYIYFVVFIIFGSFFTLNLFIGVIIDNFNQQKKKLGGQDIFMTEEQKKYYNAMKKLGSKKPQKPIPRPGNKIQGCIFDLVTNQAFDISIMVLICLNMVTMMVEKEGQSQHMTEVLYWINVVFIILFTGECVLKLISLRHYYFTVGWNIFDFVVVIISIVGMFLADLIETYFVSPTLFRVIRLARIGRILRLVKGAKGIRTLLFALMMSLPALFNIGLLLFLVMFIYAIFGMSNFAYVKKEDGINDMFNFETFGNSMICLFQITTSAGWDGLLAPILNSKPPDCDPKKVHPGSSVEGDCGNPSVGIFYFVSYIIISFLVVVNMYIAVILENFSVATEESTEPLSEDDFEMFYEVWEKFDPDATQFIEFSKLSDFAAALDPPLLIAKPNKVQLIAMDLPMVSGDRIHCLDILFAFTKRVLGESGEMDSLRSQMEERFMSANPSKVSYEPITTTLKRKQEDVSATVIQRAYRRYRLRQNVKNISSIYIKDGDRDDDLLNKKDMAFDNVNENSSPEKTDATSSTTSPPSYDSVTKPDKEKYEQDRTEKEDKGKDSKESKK
# Sequence of hNav1.7 (Q07699 whole entry partner, looked up): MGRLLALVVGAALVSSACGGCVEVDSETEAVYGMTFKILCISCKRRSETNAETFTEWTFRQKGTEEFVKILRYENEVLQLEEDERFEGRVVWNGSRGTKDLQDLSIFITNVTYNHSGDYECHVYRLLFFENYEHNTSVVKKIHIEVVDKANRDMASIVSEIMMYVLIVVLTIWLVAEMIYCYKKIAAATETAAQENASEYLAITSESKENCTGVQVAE
row,Compound,pIC50
1,"O=S(=O)(Nc1ccncn1)c1cnc(O[C@H]2CC[C@H](c3cccc(C(F)(F)F)c3)C[C@@H]2N2CCCCC2)c(Cl)c1 [Example 19, 5-chloro-6-(((1S,2S,4S)-2-(piperidin-1-yl)-4-(3-(trifluoromethyl)phenyl)cyclohexyl)oxy)-N-(pyrimidin-4-yl)pyridine-3-sulfonamide]",9.31
2,"CN(C)[C@H]1C[C@@H](c2cccc(C(F)(F)F)c2)CC[C@@H]1Nc1ccc(S(=O)(=O)Nc2ccncn2)nc1 [Example 5, 5-(((1S,2S,4S)-2-(Dimethylamino)-4-(3-(trifluoromethyl)phenyl)cyclohexyl)amino)-N-(pyrimidin-4-yl)pyridine-2-sulfonamide]",7.18
3,"O=S(=O)(Nc1ccncn1)c1cnc(O[C@H]2CC[C@H](c3cccc(C(F)(F)F)c3)C[C@@H]2N2CCCC2)c(Cl)c1 [Example 18, 5-chloro-N-(pyrimidin-4-yl)-6-(((1S,2S,4S)-2-(pyrrolidin-1-yl)-4-(3-(trifluoromethyl)phenyl)-cyclohexyl)oxy)pyridine-3-sulfonamide]",9.02
4,"Cc1nc(O[C@H]2CC[C@H](c3cccc(C(F)(F)F)c3C)C[C@@H]2N(C)C)ccc1S(=O)(=O)Nc1ccncn1 [Example 60, 6-(((1S,2S,4S)-2-(dimethylamino)-4-(2-methyl-3-(trifluoromethyl)phenyl)cyclohexyl)oxy)-2-methyl-N-(pyrimidin-4-yl)pyridine-3-sulfonamide]",8.45
5,"Cc1nc(O[C@H]2CC[C@H](c3ccc(F)c(C(F)(F)F)c3)C[C@@H]2N(C)C)ccc1S(=O)(=O)Nc1ccncn1 [Example 45, 6-(((1S,2S,4S)-2-(Dimethylamino)-4-(4-fluoro-3-(trifluoromethyl)phenyl)cyclohexyl)oxy)-2-methyl-N-(pyrimidin-4-yl)pyridine-3-sulfonamide formate]",9.04
6,"O=S(=O)(Nc1ccncn1)c1ccc(O[C@H]2CC[C@H](c3cccc(C(F)(F)F)c3)C[C@@H]2N2CCCC2)nc1 [Example 17, N-(pyrimidin-4-yl)-6-(((1S,2S,4S)-2-(pyrrolidin-1-yl)-4-(3-(trifluoromethyl)phenyl)cyclohexyl)oxy)-pyridine-3-sulfonamide formate]",8.93
7,"CN(C)[C@H]1C[C@@H](c2cccc(C(F)(F)F)c2)CC[C@@H]1Oc1ccc(S(=O)(=O)Nc2ccncn2)c(C2CC2)n1 [Example 34, 2-Cyclopropyl-6-(((1S,2S,4S)-2-(dimethylamino)-4-(3-(trifluoromethyl)phenyl)-cyclohexyl)oxy)-N-(pyrimidin-4-yl)pyridine-3-sulfonamide]",8.94
8,"CCN(CC)[C@H]1C[C@@H](c2cccc(C(F)(F)F)c2)CC[C@@H]1Oc1ccc(S(=O)(=O)Nc2ccncn2)c(C)n1 [Example 47, 6-(((1S,2S,4S)-2-(Diethylamino)-4-(3-(trifluoromethyl)phenyl)cyclohexyl)oxy)-2-methyl-N-(pyrimidin-4-yl)pyridine-3-sulfonamide]",9.04
9,"CN(C)[C@H]1C[C@@H](c2cccc(SC(F)(F)F)c2)CC[C@@H]1Oc1ccc(S(=O)(=O)Nc2ccncn2)cn1 [Example 63, 6-(((1S,2S,4S)-2-(Dimethylamino)-4-(3-((trifluoromethyl)thio)phenyl)cyclohexyl)oxy)-N-(pyrimidin-4-yl)pyridine-3-sulfonamide]",9.20
10,"CN(C)[C@H]1C[C@@H](c2cccc(OC(F)(F)F)c2)CC[C@@H]1Oc1ccc(S(=O)(=O)Nc2ccncn2)cn1 [Example 25, 6-(((1S,2S,4S)-2-(dimethylamino)-4-(3-(trifluoromethoxy)phenyl)cyclohexyl)oxy)-N-(pyrimidin-4-yl)pyridine-3-sulfonamide formate]",7.35
11,"Cc1cc(O[C@H]2CC[C@H](c3cccc(C(F)(F)F)c3)C[C@@H]2N(C)C)ncc1S(=O)(=O)Nc1ccncn1 [Example 32, 6-(((1S,2S,4S)-2-(Dimethylamino)-4-(3-(trifluoromethyl)phenyl)cyclohexyl)oxy)-4-methyl-N-(pyrimidin-4-yl)pyridine-3-sulfonamide]",8.68
12,"Cc1nc(O[C@H]2CC[C@H](c3cccc(OC(F)F)c3)C[C@@H]2N(C)C)ccc1S(=O)(=O)Nc1ccncn1 [Example 52, 6-(((1S,2S,4S)-4-(3-(difluoromethoxy)phenyl)-2-(dimethylamino)cyclohexyl)oxy)-2-methyl-N-(pyrimidin-4-yl)pyridine-3-sulfonamide]",9.21
13,"CN(C)[C@H]1C[C@@H](c2cccc(C(F)(F)F)c2)CC[C@@H]1Oc1ncc(S(=O)(=O)Nc2ccncn2)cc1F [Example 21, 6-(((1S,2S,4S)-2-(Dimethylamino)-4-(3-(trifluoromethyl)phenyl)cyclohexyl)oxy)-5-fluoro-N-(pyrimidin-4-yl)pyridine-3-sulfonamide]",8.04
14,"Cc1nc(O[C@H]2CC[C@H](c3cccc(C(F)(F)F)c3)C[C@@H]2N(C)C)c(F)cc1S(=O)(=O)Nc1ccncn1 [Example 53, 6-(((1S,2S,4S)-2-(Dimethylamino)-4-(3-(trifluoromethyl)phenyl)cyclohexyl)oxy)-5-fluoro-2-methyl-N-(pyrimidin-4-yl)pyridine-3-sulfonamide formate]",9.21
15,"O=S(=O)(Nc1ccncn1)c1ccc(N[C@H]2CC[C@H](c3cccc(C(F)(F)F)c3)C[C@@H]2N2CCCC2)nc1 [Example 16, N-(pyrimidin-4-yl)-6-(((1S,2S,4S)-2-(pyrrolidin-1-yl)-4-(3-(trifluoromethyl)phenyl)cyclohexyl)-amino)pyridine-3-sulfonamide formate]",7.60
16,"CCc1nc(O[C@H]2CC[C@H](c3cccc(C(F)(F)F)c3)C[C@@H]2N(C)C)ccc1S(=O)(=O)Nc1ccncn1 [Example 33, 6-(((1S,2S,4S)-2-(Dimethylamino)-4-(3-(trifluoromethyl)phenyl)cyclohexyl)oxy)-2-ethyl-N-(pyrimidin-4-yl)pyridine-3-sulfonamide]",8.81
17,"CN(C)[C@H]1C[C@@H](c2cccc(C(F)(F)F)c2)CC[C@@H]1Oc1ncc(S(=O)(=O)Nc2ccncn2)cc1Br [Example 20, 5-bromo-6-(((1S,2S,4S)-2-(dimethylamino)-4-(3-(trifluoromethyl)phenyl)cyclohexyl)oxy)-N-(pyrimidin-4-yl)pyridine-3-sulfonamide formate]",7.55
18,"CN(C)[C@H]1C[C@@H](c2ccc(Cl)c(C(F)(F)F)c2)CC[C@@H]1Nc1ccc(S(=O)(=O)Nc2ccncn2)cn1 [Example 11, 6-(((1S,2S,4S)-4-(4-chloro-3-(trifluoromethyl)phenyl)-2-(dimethylamino)cyclohexyl)amino)-N-(pyrimidin-4-yl)pyridine-3-sulfonamide formate]",7.78
19,"CN(C)[C@H]1C[C@@H](c2cccc(C(F)(F)F)c2)CC[C@@H]1Oc1ccc(S(=O)(=O)Nc2ccncn2)c(Cl)n1 [Example 22, 2-Chloro-6-(((1S,2S,4S)-2-(dimethylamino)-4-(3-(trifluoromethyl)phenyl)cyclohexyl)oxy)-N-(pyrimidin-4-yl)pyridine-3-sulfonamide]",7.40
20,"Cc1nc(O[C@H]2CC[C@H](c3cc(F)cc(C(F)(F)F)c3)C[C@@H]2N(C)C)ccc1S(=O)(=O)Nc1ccncn1 [Example 42, 6-(((1S,2S,4S)-2-(Dimethylamino)-4-(3-fluoro-5-(trifluoromethyl)phenyl)cyclohexyl)oxy)-2-methyl-N-(pyrimidin-4-yl)pyridine-3-sulfonamide]",9.14
21,"O=S(=O)(Nc1ccncn1)c1ccc(O[C@H]2CC[C@H](c3cccc(OC(F)(F)F)c3)C[C@@H]2N2CCCC2)nc1 [Example 10, N-(pyrimidin-4-yl)-6-(((1S,2S,4S)-2-(pyrrolidin-1-yl)-4-(3-(trifluoromethoxy)phenyl)cyclohexyl)oxy)-pyridine-3-sulfonamide]",7.17

# Source: patent publication US12209075B2, “Pyridine-sulfonamide derivatives as sodium channel inhibitors” (GENENTECH, INC., priority 2018, dated 2025)
